Reference: ChEMBL document CHEMBL1157321, “Bioactivity profiling using HPLC/microtiter-plate analysis: application to a New Zealand marine alga-derived fungus, Gliocladium sp” (J Nat Prod, 2006)
The source made the active and inactive calls. No cut-off for these calls is given here.

Assays:
[1] = test system: Trichophyton mentagrophytes; assay: Antifungal activity against Trichophyton mentagrophytes at 40 ug/disk; assay type: functional; conditions: for zone of inhibition at 40 µg/disc: read-out: IZ
Amorphotheca resinae = assay: Antifungal activity against Cladosporium resinae at 40 ug/disk; assay type: functional; conditions: for zone of inhibition at 40 µg/disc: read-out: IZ
Bacillus subtilis = assay: Antibacterial activity against Bacillus subtilis at 40 ug/disk; assay type: functional; conditions: for zone of inhibition at 40 µg/disc: read-out: IZ
P388 = assay: Cytotoxicity against mouse P388 cells; assay type: functional, cell-based

Structure (SMILES) | zone of inhibition at 40 µg/disc [1] | Activity (Amorphotheca resinae) | zone of inhibition at 40 µg/disc (Bacillus subtilis) | IC50 (P388) | Activity [1] | Activity (Bacillus subtilis) | Activity (P388) | zone of inhibition at 40 µg/disc (Amorphotheca resinae)
C[C@@H]1CCC(=O)/C=C/C(=O)O[C@H](C)C(=O)/C=C/C(=O)O1 | 1 mm | inactive | 1 mm | 3900 nM | – | – | – | –
C[C@@H]1CC[C@@H](O)/C=C/C(=O)O[C@H](C)[C@@H](O)/C=C/C(=O)O1 [CLONOSTACHYDIOL] | – | inactive | – | 25000 nM | inactive | inactive | – | –
CC(C)=CCOc1ccc(C[C@H]2NC(=O)[C@H](C)NC(=O)[C@@H](Cc3ccc(O)cc3)NC(=O)CNC(=O)[C@H](C)NC(=O)[C@H](Cc3ccccc3)OC2=O)cc1 | – | inactive | – | – | inactive | inactive | inactive | –
C[C@@H]1CC[C@@H](O)/C=C/C(=O)O[C@H](C)C(=O)/C=C/C(=O)O1 | 2 mm | – | 6 mm | 550 nM | – | – | – | 1 mm
C[C@@H]1CCC(=O)/C=C/C(=O)O[C@H](C)[C@@H](O)/C=C/C(=O)O1 | 3 mm | – | 3 mm | 1900 nM | – | – | – | 5 mm
